# Data from patent publication US8354436B2 (4SC Discovery GmbH, priority 2011, dated 2013).
# Read-outs that look alike come from different tables or passages of the source.
# Experiments:
# Format in all cases: cell-based
# Conditions in all cases: 48 hours
# IL-17AA = IL-17AA production by PHA-stimulated human PBMC (human homodimer IL-17A ELISA)
# Experimental: Analysis of Proliferation of and Cytokine Production by Human PBMC Stimulated with PHA
# Peripheral blood mononuclear cells (PBMC) from healthy human donors were purified using Accuspin™ System-Histopaque-1077 (Sigma) according to the protocol recommended by the manufacturer. Purified PBMC were then washed twice with phosphate-buffered saline (PBS) and resuspended in RPMI1640 culture medium supplemented with 10% dialyzed heat inactivated fetal calf serum, 1.5 mM L-glutamine, 100 U penicillin/ml, and […] (all from PAN Biotech, Aidenbach, Germany). For stimulation, PBMC were seeded at 1×10^5 cells/well, activated with 2 μg/ml phytohaemagglutinin (PHA, Sigma) and incubated with the test compounds for 48 hours. IL-17A, IL-17F and INF-γ were then determined in the culture supernatant using a Luminex BioPlex system, following the manufacturer's instructions (BioRad, Munich, Germany). For screening, compounds were used at 10, 1, 0.1 and 0.01 μM. To determine the IC50, compounds were titrated semilogarithmically.
# Cytokines were determined in the aforementioned culture supernatant using the following methods: IL-17AA/AF was measured using the Luminex BioPlex system (BioRad, Munich, Germany); IL-17AA using the human homodimer IL-17A ELISA Ready Set Go Kit from eBioscience (Frankfurt, Germany); IL-17FF using the human IL-17F ELI-Pair from Hölzel DiagnosticaGmBH (Köln, Germany); and IFN-γ using the OptEIA human IFN-g ELISA from BD Bioscience (Heidelberg, Germany), all following the manufacturer's instructions.
# IFN-γ = IFN-γ production by PHA-stimulated human PBMC (OptEIA human IFN-g ELISA)
# How it was run: (§1)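 Supernatant cytokine levels are read by bead-based Luminex or sandwich ELISA after 48 h culture of PHA-stimulated (2 μg/ml) human PBMC with compound. Cells are seeded at 1×10^5 per well; IC50 values derive from semilogarithmic dilution series.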
# IL-17FF = IL-17FF production by PHA-stimulated human PBMC (human IL-17F ELI-Pair)
# How it was run: as §1
# [1] = system: PBMC from healthy human donors; assay: T cell proliferation assay (PHA-stimulated human PBMC, BrdU ELISA)
# How it was run: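 Healthy-donor PBMC isolated on Ficoll, seeded at 1×10⁵ cells/well in RPMI with 10% dialysed FCS, stimulated with 2 μg/ml PHA in presence of test compound. Proliferation read after 48 hours by BrdU-incorporation ELISA.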
# [2] = human PBMC, 2 μg/ml PHA, read-out: A: IC50 (IL-17AA)
# [3] = human PBMC, 2 μg/ml PHA, read-out: C: IC50 (IFNγ)
# [4] = human PBMC, 2 μg/ml PHA, read-out: B: IC50 (IL-17FF)
# [5] = human PBMC, 2 μg/ml PHA, read-out: D: IC50 (Tcell proliferation)
# [6] = PHA-stimulated human PBMC, column A, values without *, read-out: IC50 (IL-17AA)
# [7] = PHA-stimulated human PBMC, column C, read-out: IC50 (IFNγ)
# [8] = PHA-stimulated human PBMC, column B, read-out: IC50 (IL-17FF)
# [9] = PHA-stimulated human PBMC, column D, read-out: IC50 (Tcell proliferation)
IC50 (IL-17AA; [2]),IC50 (IFN-γ; [3]),IC50 (IL-17FF; [4]),IC50 (IL-17AA; [6]),IC50 (IFN-γ; [7]),IC50 (IL-17FF; [8]),Structure (SMILES),"IC50 [1, 5]","IC50 [1, 9]"
1000 to 10000 nM,10 to 100 nM,100 to 1000 nM,–,–,–,"Cc1nnc(-c2c(-c3c(F)cccc3Cl)noc2-c2cnn(-c3ccccc3F)c2C(F)(F)F)o1 [Example 11, 2-(3-(2-chloro-6-fluorophenyl)-5-(1-(2-fluorophenyl)-5-(trifluoromethyl)-1H-pyrazol-4-yl)isoxazol-4-yl)-5-methyl-1,3,4-oxadiazole]",100 to 1000 nM,–
–,–,–,100 to 1000 nM,100 to 1000 nM,10 to 100 nM,"CNC(=O)c1c(-c2c(F)cccc2Cl)noc1-c1cnn(-c2cccc(Cl)c2)c1C(F)(F)F [Example I-32, 3-(2-chloro-6-fluorophenyl)-5-(1-(3-chlorophenyl)-5-(trifluoromethyl)-1H-pyrazol-4-yl)-N-methylisoxazole-4-carboxamide]",–,10 to 100 nM
100 to 1000 nM,10 to 100 nM,10 to 100 nM,–,–,–,"Cc1nnc(-c2c(-c3c(F)cccc3Cl)noc2-c2cnn(-c3ccccc3F)c2C(F)(F)F)s1 [Example 12, 3-(2-chloro-6-fluorophenyl)-5-(1-(2-fluorophenyl)-5-(trifluoromethyl)-1H-pyrazol-4-yl)-4-(5-methyl-1,3,4-thiadiazol-2-yl)isoxazole]",100 to 1000 nM,–
–,–,–,1000 to 10000 nM,1000 to 10000 nM,1000 to 10000 nM,"CNC(=O)c1c(-c2c(F)cccc2Cl)noc1-c1cnn(-c2ccc(F)cc2F)c1C(F)(F)F [Example I-57, 3-(2-chloro-6-fluorophenyl)-5-(1-(2,4-difluorophenyl)-5-(trifluoromethyl)-1H-pyrazol-4-yl)-N-methylisoxazole-4-carboxamide]",–,1000 to 10000 nM
–,–,–,100 to 1000 nM,10 to 100 nM,10 to 100 nM,"COC(=O)c1c(-c2c(F)cccc2Cl)noc1-c1cnn(-c2ccccc2)c1C(F)(F)F [Example I-48, methyl 3-(2-chloro-6-fluorophenyl)-5-(1-phenyl-5-(trifluomethyl)1H-pyrazol-4-yl)isoxazole-4-carboxylate]",–,10 to 100 nM
–,–,–,10 to 100 nM,10 to 100 nM,10 to 100 nM,"CCOC(=O)c1c(-c2c(F)cccc2Cl)noc1-c1cnn(-c2cccc(NC(C)=O)c2)c1C(F)(F)F [IB-70, ethyl 5-(1-(3-acetamidophenyl)-5-(trifluoromethyl)-1H-pyrazol-4-yl)-3-(2-chloro-6-fluorophenyl)isoxazole-4-carboxylate]",–,10 to 100 nM
–,–,–,100 to 1000 nM,10 to 100 nM,10 to 100 nM,"COC(=O)c1c(-c2c(F)cccc2Cl)noc1-c1cnn(-c2cccc(C#N)c2)c1C(F)(F)F [Example I-12, methyl 3-(2-chloro-6-fluorophenyl)-5-(1-(3-cyanophenyl)-5-(trifluoromethyl)-1H-pyrazol-4-yl)isoxazole-4-carboxylate]",–,10 to 100 nM
< 10 nM,< 10 nM,< 10 nM,–,–,–,"Fc1cccc(Cl)c1-c1noc(-c2cnn(-c3cccc(Cl)c3)c2C(F)(F)F)c1-c1nccs1 [Example 5, 3-(2-chloro-6-fluorophenyl)-5-(1-(3-chlorophenyl)-5-(trifluoromethyl)-1H-pyrazol-4-yl)-4-(thiazol-2-yl)isoxazole]",< 10 nM,–
1000 to 10000 nM,1000 to 10000 nM,100 to 1000 nM,–,–,–,"Fc1cccc(-n2ncc(-c3onc(-c4c(F)cccc4Cl)c3-c3ccoc3)c2C(F)(F)F)c1 [Example 13, 3-(2-chloro-6-fluorophenyl)-5-(1-(3-fluorophenyl)-5-(trifluoromethyl)-1H-pyrazol-4-yl)-4-(furan-3-yl)isoxazole]",1000 to 10000 nM,–
100 to 1000 nM,100 to 1000 nM,10 to 100 nM,–,–,–,"Fc1ccccc1-n1ncc(-c2onc(-c3c(F)cccc3Cl)c2-c2ccoc2)c1C(F)(F)F [Example B-9, 3-(2-chloro-6-fluorophenyl)-5-(1-(2-fluorophenyl)-5-(trifluoromethyl)-1H-pyrazol-4-yl)-4-(furan-3-yl)isoxazole]",100 to 1000 nM,–
–,–,–,100 to 1000 nM,100 to 1000 nM,10 to 100 nM,"CON(C)C(=O)c1c(-c2c(F)cccc2Cl)noc1-c1cnn(-c2cccc(Cl)c2)c1C(F)(F)F [Example I-63, 3-(2-chloro-6-fluorophenyl)-5-(1-(3-chlorophenyl)-5-(trifluoromethyl)-1H-pyrazol-4-yl)-N-methoxy-N-methylisoxazole-4-carboxamide]",–,100 to 1000 nM
–,–,–,< 10 nM,< 10 nM,< 10 nM,"COC(=O)c1c(-c2c(F)cccc2Cl)noc1-c1cnn(-c2cccc(Cl)c2)c1C(F)(F)F [Example I-11, methyl 3-(2-chloro-6-fluorophenyl)-5-(1-(3-chlorophenyl)-5-(trifluoromethyl)-1H-pyrazol-4-yl)isoxazole-4-carboxylate]",–,< 10 nM
100 to 1000 nM,10 to 100 nM,10 to 100 nM,–,–,–,"COC(=O)c1csc(-c2c(-c3c(F)cccc3Cl)noc2-c2cnn(-c3cccc(F)c3)c2C(F)(F)F)n1 [Example B-2, methyl 2-(3-(2-chloro-6-fluorophenyl)-5-(1-(3-fluorophenyl)-5-(trifluoromethyl)-1H-pyrazol-4-yl)isoxazol-4-yl)thiazole-4-carboxylate]",100 to 1000 nM,–
–,–,–,1000 to 10000 nM,1000 to 10000 nM,1000 to 10000 nM,"CNC(=O)c1c(-c2c(F)cccc2Cl)noc1-c1cnn(-c2ccccc2F)c1C(F)(F)F [Example I-19, 3-(2-chloro-6-fluorophenyl)-5-(1-(2-fluorophenyl)-5-(trifluoromethyl)-1H-pyrazol-4-yl)-N-methylisoxazole-4-carboxamide]",–,1000 to 10000 nM
–,–,–,1000 to 10000 nM,100 to 1000 nM,100 to 1000 nM,"O=C(NC1CCCCC1)c1c(-c2c(F)cccc2Cl)noc1-c1cnn(-c2ccccc2F)c1C(F)(F)F [Example I-18, 3-(2-chloro-6-fluorophenyl)-N-cyclohexyl-5-(1-(2-fluorophenyl)-5-(trifluoromethyl)-1H-pyrazol-4-yl)isoxazole-4-carboxamide]",–,1000 to 10000 nM
–,–,–,–,10 to 100 nM,10 to 100 nM,"CCOC(=O)c1c(-c2ccccc2F)noc1-c1cnn(-c2cccc(Cl)c2)c1C(F)(F)F [IB-47, ethyl 5-(1-(3-chlorophenyl)-5-(trifluoromethyl)-1H-pyrazol-4-yl)-3-(2-fluorophenyl)isoxazole-4-carboxylate]",–,10 to 100 nM
–,–,–,–,< 10 nM,< 10 nM,"CCOC(=O)c1c(-c2c(F)cccc2Cl)noc1-c1cnn(-c2cccnc2)c1C(F)(F)F [IB-37, ethyl 3-(2-chloro-6-fluorophenyl)-5-(1-(pyridin-3-yl)-5-(trifluoromethyl)-1H-pyrazol-4-yl)-isoxazole-4-carboxylate]",–,< 10 nM
–,–,–,–,1000 to 10000 nM,100 to 1000 nM,"CCOC(=O)c1c(-c2ccncc2F)noc1-c1cnn(-c2cccc(F)c2)c1C(F)(F)F [IB-14, ethyl 5-(1-(3-fluorophenyl)-5-(trifluoromethyl)-1H-pyrazol-4-yl)-3-(3-fluoropyridin-4-yl)isoxazole-4-carboxylate]",–,1000 to 10000 nM
–,–,–,–,1000 to 10000 nM,1000 to 10000 nM,"CCOC(=O)c1c(-c2c(F)cccc2Cl)noc1-c1cnn(-c2ccccc2C#N)c1C(F)(F)F [IB-44, ethyl 3-(2-chloro-6-fluorophenyl)-5-(1-(2-cyanophenyl)-5-(trifluoromethyl)-1H-pyrazol-4-yl)-isoxazole-4-carboxylate]",–,1000 to 10000 nM
–,–,–,–,< 10 nM,< 10 nM,"COC(=O)c1c(-c2c(F)cccc2Cl)noc1-c1cnn(-c2ccccn2)c1C(F)(F)F [Example I-84, methyl 3-(2-chloro-6-fluorophenyl)-5-(1-(pyridin-2-yl)-5-(trifluoromethyl)-1H-pyrazol-4-yl)isoxazole-4-carboxylate]",–,< 10 nM
